In patent publication US9566341B1, “Compounds including Cox inhibitor moiety and enhanced delivery of active drugs using same” (University of Kentucky Research Foundation, priority 2011, dated 2017):
Several values for one entry are separate records, joined by “and”; a condition that tells them apart may be missing. Identical values can stand only once. Entries after “also recorded” stand apart in the source; their conditions may differ. Like-named read-outs stand apart in the source and are kept apart here.

Columns and labels:
[1] = Chemical stability in 0.3M acetate buffer pH 5.0 at 32° C.; assay type: physicochemical
From the text: The chemical stability of the prodrugs to hydrolysis and solvolysis at the appropriate temperatures will be determined by measuring concentrations over time in the buffers and solvents used in the solubility and diffusion studies. Chemical degradation rate constants will be important in distinguishing enzymatic degradation from non-enzymatic degradation. Codrug enzymatic metabolism rate constants can also be determined in skin homogenates, to ascertain if the values are useful in the QSPR multiple regression analysis. The kinetics of codrug enzymatic degradation in skin homogenates will be done using abdominal plastic surgery samples. Enzymatic reaction rates will be determined at several different codrug concentrations. The skin is homogenized (Polytron tissue homogenizer and ground glass homogenizer fitted with a glass pestle) in HEPES-buffered Hanks' balanced salt solution and the supernatant is obtained. The enzymatic hydrolysis rates are determined in the homogenate at 37° C. The codrug and its metabolites will be obtained by solid-phase extraction, or another appropriate extraction method. Naltrexone and any other metabolite formed will be assayed by HPLC and expressed as moles of metabolite per minute per milligram of protein. Protein concentrations in the supernatant will be measured by the Bradford method. Controls containing only codrug and HEPES-buffered Hanks' balanced salt solution at 37° C. will also be monitored to determine non-enzymatic hydrolysis.
Chemical and enzymatic stability was determined for the codrugs. For chemical stability studies, the codrug was put in prewarmed 0.3M acetate buffer pH 5.0 after solubilization in <5% ACN, if required, at 32° C. in an incubator. Samples were withdrawn at regular intervals and injected into the HPLC after appropriate dilutions. Enzymatic stability studies are important for estimation of conversion of codrugs in the plasma. […] All stability data was analyzed using pseudo first order kinetics. […]

[2] = In vitro diffusion study across microneedle-treated full thickness Yucatan miniature pig skin; assay type: in vitro ADME; settings: for bioconversion of the codrug in the skin: parent drugs in receiver/skin; for flux enhancement of salt form over free base form: NTX flux, p<0.005; for flux of naltrexone from the hydrochloride salt form: donor in 0.3M acetate buffer pH 5.0, n=4
Protocol: For all in vitro experiments female Yucatan minipig skin (6 months old) were used. Skin sections were obtained by removing the subcutaneous fatty tissue by scalpel dissection, and were stored at −20° C. A PermeGear flow-through (In-Line, Riegelsville, Pa., USA) diffusion cell system was used for the skin permeation studies.
The skin was pierced 20 times with an array containing 5 MN (i.e., to make a total of 100 individual and non-over lapping piercings) before mounting the skin in the diffusion cell for the treatment group. The insertion of MN into skin was carried out manually by applying gentle finger pressure followed by instantaneous removal. MN's were distributed evenly within the 0.95 cm^2 area of skin and could easily be visualized after each 5 MN insertion, as to prevent reapplication in the same area. Single MN array of 5 were used simply out of ease for the experimental procedure. If any damage to an MN section was observed the section was replaced. […] Untreated skin samples were simply placed in the diffusion cells. Diffusion cells were kept at 32° C. using a circulating water bath. Data were collected using skin from a single pig 3-4 cells for the MN treated formulations.
The physiological receiver solution was water adjusted to pH 7.4 containing 20% ethanol, and the flow rate was adjusted to 1.5 ml/h. Each cell was charged with 0.25 ml of the donor in the donor compartment of the chamber. The diffusion cells were covered with a stopper to prevent evaporation. Samples were collected from the receiver compartment in six-hour increments over 48 h or for the length of the treatment. All samples were stored at 4° C. until analyzed by HPLC.
The in vitro permeation experiments were carried out to determine the transdermal flux of the parent drugs and the codrug, permeation coefficients as well as the concentration of the drug molecules in the skin at the end of the study. For all in vitro experiments Yucatan miniature pig (YP) skin was used. Full thickness skin was obtained by removing the subcutaneous fatty tissue by scalpel dissection, and stored at −20° C. A PermeGear flow-through (In-Line, Riegelsville, Pa., USA) diffusion cell system was used for the skin permeation studies. […] The skin was pierced 20 times with a 5 MN array (making 100 individual and non-over lapping piercings) before mounting the skin in the diffusion cell. MN pores were distributed evenly within the 0.95 cm^2 area of skin. Untreated skin samples were mounted directly onto the diffusion cells. The setup was maintained at 32° C. using a circulating water bath. Data collected using a minimum of 3-4 cells per treatment group. The receiver solution was water alkalified to pH 7.4 containing 20% ethanol at 37° C. Gentamycin sulfate (50 mg/L) was added to the receiver for 7 day studies as an antibacterial agent. The receiver flow rate was adjusted to 1.5 ml/h to maintain skin conditions. Each cell was charged with 0.25 ml of the donor and the diffusion cells were covered with a stopper to prevent evaporation of formulation. Samples were collected at regular increments over 48 hours or for the length of the treatment. Drug was concentrated 10 fold by evaporating 1 ml of the collected sample under nitrogen and reconstituting in 100 μl of ACN for quantification. All samples were stored at 4° C. until analyzed by HPLC. The skin was removed at the end of the study and the treatment area was diced into small pieces using a scalpel after removing all excess drugs from top of the skin. Drug was extracted out by immersing the skin pieces in ACN overnight in a shaker water bath at 32° C. Samples were injected into the HPLC after appropriate dilution for quantitative analysis. The donor was also removed and quantified at the end of the study by direct injection onto HPLC after suitable dilution using ACN. All data was analyzed using Fick's first law of diffusion. […]

[3] = test system: hairless guinea pig micropores; assay: In vivo micropore visualization by gentian violet/India ink staining after MN treatment; settings: codrug gel under occlusion, patch changed at 3.5 days
From the text: The patches were removed at predetermined time points and the site was cleaned with sterile gauze. Gentian violet/India ink was applied as the dyeing agent at the MN treated sites and allowed to dry before excess dye was removed with ethanol and gauze. Both the dyes stain the viable epidermis but not the intact SC. […] The donor was removed from the top of the skin at the end of the study and analyzed by direct injection onto HPLC after suitable dilution using ACN.
All animal experiments were approved by the University of Kentucky IACUC. A proof of concept in vivo experiment was carried out. 4% w/w gels were prepared with the hydrochloride salt form of the codrug. Gels were formulated by dissolving 4% codrug salt in PG: buffer at pH 5.0=10:90 and 3.0% hydroxyethylcellulose (HEC) polymer (required to have a gel formulation). Polymer was dissolved over a 30 minute period to obtain a homogenous gel. The solution was stirred until a viscous gel resulted and then left at room temperature for 1½ to 2 hours to remove bubbles and ensure complete polymerization. The gel was saturated with excess solid and therefore was cloudy. MN treated animals were first cleaned topically with isopropyl alcohol, and 50 MN array was applied twice mutually perpendicular to each other to give a total of 100 pores at each site. 0.3 mL gel doses were applied to the dorsal region of the HGP. After application of the gel the skin was occluded with the occlusive patch and biocclusive tape was applied to prevent evaporation of the formulation. The patch was changed with new formulation at 3.5 days such that more than 50% intact codrug was always present in formulation. […] The patches were removed to obtain data at successive 24 h time intervals.
The patches were removed at predetermined time points and the site was cleaned with sterile gauze. Gentian violet/India ink was applied as the dyeing agent at the MN treated sites and allowed to dry before excess dye was removed with ethanol and gauze. Both the dyes stain the viable epidermis but not the intact SC.

[4] = Concentration of saturated donor solution; assay type: physicochemical
Protocol: Solubility studies are carried out by equilibrating large excesses of each drug with the solvent studied. The experiments will be done at skin surface temperature (32° C.). To hasten the attainment of equilibrium, each slurry will be continuously shaken or stirred. Samples will be taken, filtered with an appropriate filter for the solvent, measured with respect to volume, and either assayed directly by HPLC or evaporated to dryness and reconstituted for assay. Binding of the compounds to the filter will be checked to eliminate the possibility of drug adsorption on the filter and/or filter casing. All toxic solvents and other chemicals will be handled with caution, and fume hoods will be used when appropriate.
In vitro experiments. The goal of the first set of in vitro experiments was to estimate flux and skin concentration of the base form of the codrug.

[5] = Enzymatic stability in hairless guinea pig plasma; assay type: in vitro ADME; settings: for enzymatic stability half-life in hairless guinea pig plasma: HGP plasma, 37° C., n=3
Protocol: Chemical and enzymatic stability was determined for the codrugs. For chemical stability studies, the codrug was put in prewarmed 0.3M acetate buffer pH 5.0 after solubilization in <5% ACN, if required, at 32° C. in an incubator. Samples were withdrawn at regular intervals and injected into the HPLC after appropriate dilutions. Enzymatic stability studies are important for estimation of conversion of codrugs in the plasma. For plasma stability studies prewarmed HGP plasma at 37° C. was spiked with codrug solution and samples were withdrawn at regular intervals. 100 μl of plasma sample was extracted with 1 ml of 1:1 ACN:ethyl acetate, vortexed, centrifuged at 10,000 rpm for 20 minutes on a bench top Eppendorf Mini Spin®. The supernatant was decanted into a glass tube and evaporated under nitrogen. Samples were reconstituted in 100 μl ACN and injected onto the HPLC. All stability data was analyzed using pseudo first order kinetics. All stability studies were carried out at least, in triplicate.

[6] = cited from earlier work
[7] = in vivo, po, cited from earlier work
[8] = Pharmacokinetic study with codrug HCl salt gel patches after MN treatment; assay type: in vivo, hairless guinea pig
Protocol: Microneedle treatment at each patch site contained 100 micropores created by a 1 cm^2 50 needle stainless steel array rotated 90° and inserted twice. […] Plasma samples were obtained from a jugular catheter over seven days and analyzed for drug concentration by LC/MS (Methods).
(§1) Hairless IAF guinea pigs (Charles River) weighing 350-650 g were used for these studies. All animal studies were in accordance with the institutional guidelines and approved by the University of Kentucky IACUC. Surgical procedure was performed to canulate the jugular vein. Blood samples (0.3 mL) were drawn from the jugular vein at regular time intervals for the time studied. MN treated animals were first cleaned topically with isopropyl alcohol, and two 50 MN arrays were then manually applied to each dose site. For MN treated GPs, four 0.3 mL gel doses were applied to the dorsal region of the hairless guinea pigs at 4 sites to obtain steady state plasma levels. […] The blood samples were immediately centrifuged at 10,000×g for 3 min; plasma was separated and stored at −70° C. until analysis.
as §1, with “70 g C” for “−70° C.”

[9] = listed as Compound 2U hydrochloride salt

O=C(Cc1ccccc1Nc1c(Cl)cccc1Cl)Oc1ccc2c3c1O[C@H]1C(=O)CC[C@@]4(O)[C@@H](C2)N(CC2CC2)CC[C@]314 [Compound 2A]
Chemical stability [1]: 3.9 ± 0.56 days | diclofenac skin concentration versus effective skin concentration goal of FIG. 5 [2]: did not provide that level | flux of NTX from the codrug relative to diclofenac flux ([2]; FIG. 6): twice as high | bioconversion of the codrug in the skin ([2]; MN treated skin): bioconverted completely in the skin | bioconversion of the codrug in the skin ([2]; MN treated skin, listed as Compound 2U): degraded in the skin to regenerate back the parent drugs | bioconversion of the codrug in the skin ([2]; MN treated skin, listed as codrug): completely hydrolyzed in the skin; also recorded: degraded in the skin to regenerate back the parent drugs | steady state flux of naltrexone from the codrug ([2]; base form, saturated donor PG:ethanol:water=43:43:14, MN treated skin, 48 h, n=3): 0.42±0.12 nmol/(cm^2/h) | steady state flux of diclofenac from the codrug ([2]; base form, saturated donor PG:ethanol:water=43:43:14, MN treated skin, 48 h, n=3, listed as Compound 2U): 0.19±0.06 nmol/(cm^2/h) | time the pores stay open after MN treatment [3]: 7 days | concentration of saturated donor solution ([4]; base form, PG:ethanol:water=43:43:14): 4500 µg/mL | Enzymatic stability [5]: 6.4 ± 0.84 min | enzymatic stability half-life in hairless guinea pig plasma [5]: around 6 minutes | enzymatic stability half-life in hairless guinea pig plasma ([5]; listed as Compound 2U): 6.4 ± 0.84 min | enzymatic stability half-life in hairless guinea pig plasma ([5]; listed as codrug): 6.4 ± 0.84 min

O=C1CC[C@@]2(O)[C@H]3Cc4ccc(O)c5c4[C@@]2(CCN3CC2CC2)[C@H]1O5 [NTX, Naltrexone]
log P [6]: 1.8 | oral bioavailability [7]: 5-40% | oral bioavailability ([7]; listed as Naltrexone): five to forty

Cl.O=C(Cc1ccccc1Nc1c(Cl)cccc1Cl)Oc1ccc2c3c1O[C@H]1C(=O)CC[C@@]4(O)[C@@H](C2)N(CC2CC2)CC[C@]314 [codrug salt]
flux enhancement of salt form over free base form [2]: 13 fold | flux enhancement of salt form over free base form [2, 9]: about 13 fold | flux of naltrexone from the hydrochloride salt form ([2]; MN treated skin): 5.42±1.5 nmol/(cm^2/h) and 5.5 nmol/(cm^2/h) | flux of naltrexone from the hydrochloride salt form ([2]; MN treated skin, listed as Compound 2U hydrochloride salt): 5.42±1.5 nmol/(cm^2/h) | flux at higher concentrations of PG ([2]; salt form, 25% and 50% PG, saturated donor): flux decreased significantly | flux of 10% PG containing formulation versus aqueous formulation ([2]; salt form, saturated donor, one way ANOVA): no significant difference in flux | time the pores stay open after MN treatment [3, 9]: ≤ 7 days | time the pores stay open after MN treatment ([3]; listed as HCl salt form of the compound): ≤ 7 days | concentration of donor solution ([4]; hydrochloride salt, 0.3M acetate buffer at pH 5.0): 39300 µg/mL | Css estimated from Jss*A=Css*Cl ([8]; 4 patches, 400 MN treatments): around 1 ng/ml | intact codrug in plasma samples ([8]; LC/MS, over seven days): not detected | micropore staining with India ink ([8]; days 1, 4, 5, 6, and 7): Significant micropore staining | time at which pores closed ([8]; one guinea pig of four): 6 days | flux of NTX from the codrug in hairless guinea pig model ([8]; salt form, 10% PG formulation): not high enough to quantify | duration of significant NTX plasma levels ([8]; three out of the four guinea pigs, four patches, single MN pretreatment): 7 days
